Structures can show the parent of a compound that is named as a salt.
Biological target: T1, recombinant human mPGES-1 (Homo sapiens, UniProt O14684)
T1 construct: made in house; host or cells: Rosetta E. coli (microsomal/membrane fraction)
T1 sequence (O14684 1-152): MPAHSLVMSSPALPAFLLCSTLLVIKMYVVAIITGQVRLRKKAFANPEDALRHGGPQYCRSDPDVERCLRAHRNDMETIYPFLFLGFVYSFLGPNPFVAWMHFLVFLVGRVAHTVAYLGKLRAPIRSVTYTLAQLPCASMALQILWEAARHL
Experiment: mPGES-1 inhibition, HTRF detection of PGE2
Type: biochemical
Description: Microsomes from Rosetta E. coli bacteria expressing recombinant human mPGES-1 is dissolved in 0.1 M KPi pH 7.4 buffer containing 2.5 mM GSH. 50 μl of the enzyme is subsequently dispensed in a 384-well plate. 0.5 μl of the inhibitor dissolved in DMSO at is thereafter added to each well and incubated for 25 minutes at room temperature. Subsequently, 2 μl of PGH2 dissolved in an appropriate solvent is added to each well and after one minute the acidified stop solution containing FeCl2 is added. 4 μl of the total volume is transferred to a separate plate and diluted 750-fold in two separate steps before HTRF detection of PGE2.
The HTRf detection is performed by the use of a commercially available kit from CisBio essentially according to the manufacturer's protocol. Briefly, 10 μl of the diluted sample is transferred to a white 384-well plate. 5 μl of d2 and 5 μl Eu3+-Cryptate labeled anti-PGE2 is added to each well containing samples by the use of a Multidrop. The plate is covered with a plastic self-adhesive film, centrifuged at 1200 rpm for 1 minute and subsequently stored at +4° C. over night.
After over night incubation the fluorescence is measured by the use of an appropriate microplate reader. The fluorescence of europium cryptate, and d2 are measured using the following excitation and emission wavelength, europium cryptate: λmax^ex=307 nm, λmax^em=620 nm and d2: λmax^ex=620 nm, λmax^em=665 nm), respectively. The extent of the specific FRET is measured as a ratio of the emission intensity at 665 nm vs. that at 620 nm. A standard curve using synthetic PGE2 is used to quantify the amount of PGE2 in unknown samples.

Question: `O=C(Nc1cc(C(F)(F)F)ccn1)c1cc2nc(Nc3c(Cl)cncc3Cl)[nH]c2nc1OCC(F)(F)F` [Example 857, 2-(3,5-Dichloro-pyridin-4-ylamino)-5-(2,2,2-trifluoro-ethoxy)-N-(4-trifluoromethyl-pyridin-2-yl)-3H-imidazo[4,5-b]pyridine-6-carboxamide] was tested. Which inhibition at 10 µM did it give?
Answer: Its inhibition at 10 µM is 99%.

Question: With `Cn1c(Nc2c(Cl)cccc2Cl)nc2cc(C(=O)NCc3ccccc3C(F)(F)F)cnc21` [Example 468, 2-(2,6-Dichlorophenylamino)-3-methyl-N-(2-trifluoromethyl-benzyl)-3H-imidazo[4,5-b]pyridine-6-carboxamide] as the compound, how does the inhibition at 10 µM read?
Answer: The inhibition at 10 µM was 98%.

Question: With `CN(C)CCOc1nc2c(cc1C(=O)N[C@H]1CC[C@H](C(F)(F)F)CC1)nc(Nc1c(Cl)cc(F)cc1Cl)n2C` [Example 865, 2-(2,6-Dichloro-4-fluoro-phenylamino)-5-(2-dimethylamino-ethoxy)-N-(trans-4-trifluoromethyl-cyclohexyl)-3-methyl-3H-imidazo[4,5-b]pyridine-6-carboxamide] as the compound, how does the inhibition at 10 µM read?
Answer: The inhibition at 10 µM was 92%.

Question: With `O=C(Nc1cc(C(F)(F)F)ccn1)c1cc2nc(Nc3c(Cl)cc(F)cc3Cl)[nH]c2nc1OCC(F)F` [Example 821, 2-(2,6-Dichloro-4-fluoro-phenylamino)-5-(2,2-difluoro-ethoxy)-N-(4-trifluoromethyl-pyridin-2-yl)-3H-imidazo[4,5-b]pyridine-6-carboxamide] as the compound, how does the inhibition at 10 µM read?
Answer: The inhibition at 10 µM was 90%.

Question: How did the inhibition at 10 µM turn out when `Cn1c(Nc2c(Cl)cncc2Cl)nc2cc(C(=O)NCC(F)(F)C(F)(F)C(F)(F)C(F)(F)F)c(OC3CCOC3)nc21` (stereo not drawn) [Example 849, 2-(3,5-Dichloro-pyridin-4-ylamino)-5-(tetrahydrofuran-3-yl-oxy)-N-(2,2,3,3,4,4,5,5,5-nonafluoro-pentyl)-3-methyl-3H-imidazo[4,5-b]pyridine-6-carboxamide] was run?
Answer: Its inhibition at 10 µM is 98%.

Question: `O=C(Nc1ccc(Br)cc1)c1cc2nc(Nc3c(Cl)cncc3Cl)[nH]c2nc1OCC(F)F` [Example 804, 2-(3,5-Dichloro-pyridin-4-ylamino)-5-(2,2-difluoro-ethoxy)-N-(4-bromo-phenyl)-3H-imidazo[4,5-b]pyridine-6-carboxamide] was tested. Which inhibition at 10 µM did it give?
Answer: Its inhibition at 10 µM is 98%.

Question: Which inhibition at 10 µM does the source give for `CC1(C)CCC(NC(=O)c2cnc3[nH]c(Nc4c(Cl)cccc4Cl)nc3c2)CC1` [Example 429, 2-(2,6-Dichlorophenylamino)-N-(4,4-dimethylcyclohexyl)-3H-imidazo[4,5-b]pyridine-6-carboxamide] here?
Answer: The inhibition at 10 µM was 97%.

Question: For `COCCOc1nc2[nH]c(Nc3c(Cl)cc(F)cc3Cl)nc2cc1C(=O)N[C@H]1CC[C@H](C(F)(F)F)CC1` [Example 867, 2-(2,6-Dichloro-4-fluoro-phenylamino)-5-(2-methoxy-ethoxy)-N-(trans-4-trifluoromethyl-cyclohexyl)-3H-imidazo[4,5-b]pyridine-6-carboxamide], which inhibition at 10 µM is on record?
Answer: Its inhibition at 10 µM is 100%.

Question: With `O=C(NC1CCC2(CC1)CC2)c1cnc2[nH]c(Nc3c(Cl)cccc3Cl)nc2c1` [Example 485, 2-(2,6-Dichlorophenylamino)-N-(spiro[2.5]octan-6-yl)-3H-imidazo[4,5-b]pyridine-6-carboxamide] as the compound, how does the inhibition at 10 µM read?
Answer: The inhibition at 10 µM was 98%.

Question: Which inhibition at 10 µM does the source give for `CCOc1nc2[nH]c(Nc3c(Cl)cncc3Cl)nc2cc1C(=O)Nc1ccc(Br)cc1` [Example 856, 2-(3,5-Dichloro-pyridin-4-ylamino)-5-ethoxy-N-(4-bromo-phenyl)-3H-imidazo[4,5-b]pyridine-6-carboxamide] here?
Answer: The inhibition at 10 µM was 93%.

Question: With `COCCOc1nc2c(cc1C(=O)N[C@H]1CC[C@H](C(F)(F)F)CC1)nc(Nc1c(Cl)cc(F)cc1Cl)n2C` [Example 869, 2-(2,6-Dichloro-4-fluoro-phenylamino)-5-(2-methoxy-ethoxy)-N-(trans-4-trifluoromethyl-cyclohexyl)-3-methyl-3H-imidazo[4,5-b]pyridine-6-carboxamide] as the compound, how does the inhibition at 10 µM read?
Answer: The inhibition at 10 µM was 100%.

Question: How did the inhibition at 10 µM turn out when `CC(C)n1c(Nc2ccccc2Cl)nc2cc(C(=O)NC3CCC(C)(C)CC3)cnc21` [Example 541, 2-(2-Chlorophenylamino)-N-(4,4-dimethylcyclohexyl)-3-isopropyl-3H-imidazo[4,5-b]pyridine-6-carboxamide hydrochloride] was run?
Answer: The inhibition at 10 µM was 74%.

Question: How did the inhibition at 10 µM turn out when `Cn1c(Nc2c(Cl)cncc2Cl)nc2cc(C(=O)NCC(F)(F)C(F)(F)C(F)(F)C(F)(F)F)c(OCC(F)F)nc21` [Example 840, 2-(3,5-Dichloro-pyridin-4-ylamino)-5-(2,2-difluoro-ethoxy)-N-(2,2,3,3,4,4,5,5,5-nonafluoropentyl)-3-methyl-3H-imidazo[4,5-b]pyridine-6-carboxamide] was run?
Answer: The inhibition at 10 µM was 99%.

Question: How did the inhibition at 10 µM turn out when `Cn1c(Nc2c(Cl)cc(F)cc2Cl)nc2cc(C(=O)NCc3ncccc3C(F)(F)F)c(OCC(F)(F)F)nc21` [Example 813, 2-(2,6-Dichloro-4-fluoro-phenylamino)-5-(2,2,2-trifluoro-ethoxy)-N-((3-trifluoromethyl-pyridin-2-yl)-methyl)-3-methyl-3H-imidazo[4,5-b]pyridine-6-carboxamide] was run?
Answer: The inhibition at 10 µM was 99%.

Question: `Cn1c(Nc2c(Cl)cncc2Cl)nc2cc(C(=O)NCc3ncccc3C(F)(F)F)c(OCC(F)(F)F)nc21` [Example 851, 2-(3,5-Dichloro-pyridin-4-ylamino)-5-(2,2,2-trifluoro-ethoxy)-N-((3-trifluoromethyl-pyridin-2-yl)-methyl)-3-methyl-3H-imidazo[4,5-b]pyridine-6-carboxamide] was tested. Which inhibition at 10 µM did it give?
Answer: The inhibition at 10 µM was 98%.

Question: `O=C(Nc1ccc(Br)cc1)c1cc2nc(Nc3c(F)cccc3Cl)[nH]c2nc1OCC(F)F` [Example 776, N-(4-Bromo-phenyl)-2-(2-fluoro-6-chloro-phenylamino)-5-(2,2-difluoroethoxy)-3H-imidazo[4,5-b]pyridine-6-carboxamide] was tested. Which inhibition at 1 µM did it give?
Answer: Its inhibition at 1 µM is 100%.

Question: For `CC#CCn1c(Nc2c(Cl)cccc2Cl)nc2cc(C(=O)NC3CCCCC3)cnc21` [Example 523, 3-(But-2-ynyl)-N-cyclohexyl-2-(2,6-dichlorophenylamino)-3H-imidazo[4,5-b]pyridine-6-carboxamide], which inhibition at 10 µM is on record?
Answer: The inhibition at 10 µM was 96%.

Question: For `Cn1c(Nc2c(F)cccc2C(F)(F)F)nc2cc(C(=O)N[C@H]3CC[C@H](C(F)(F)F)CC3)c(OCC(F)F)nc21` [Example 780, 2-(2-Fluoro-6-trifluoromethyl-phenylamino)-5-(2,2-difluoro-ethoxy)-N-(trans-4-trifluoromethyl-cyclohexyl)-3-methyl-3H-imidazo[4,5-b]pyridine-6-carboxamide], which inhibition at 1 µM is on record?
Answer: Its inhibition at 1 µM is 100%.

Question: Which inhibition at 10 µM does the source give for `Cn1c(Nc2c(Cl)cccc2Cl)nc2cc(C(=O)NC3CCC(C(C)(C)C)CC3)cnc21` (stereo not drawn) [Example 393, N-(4-tert-Butylcyclohexyl)-2-(2,6-dichlorophenylamino)-3-methyl-3H-imidazo[4,5-b]pyridine-6-carboxamide] here?
Answer: Its inhibition at 10 µM is 99%.

Question: `CCC1CCC(NC(=O)c2cnc3c(c2)nc(Nc2c(Cl)cccc2Cl)n3C)CC1` (stereo not drawn) [Example 438, 2-(2,6-Dichlorophenylamino)-N-(4-ethylcyclohexyl)-3-methyl-3H-imidazo[4,5-b]pyridine-6-carboxamide] was tested. Which inhibition at 10 µM did it give?
Answer: The inhibition at 10 µM was 100%.

Question: With `O=C(Nc1ccc(Br)cc1)c1cc2nc(Nc3c(F)cccc3C(F)(F)F)[nH]c2nc1OCC(F)F` [Example 774, N-(4-Bromo-phenyl)-2-(2-fluoro-6-trifluoromethyl-phenylamino)-5-(2,2-difluoroethoxy)-3H-imidazo[4,5-b]pyridine-6-carboxamide] as the compound, how does the inhibition at 1 µM read?
Answer: The inhibition at 1 µM was 100%.

From US8703796B2, “3H-imidazo [4, 5-B] pyridine-6-carboxamides as anti-inflammatory agents” (Boehringer Ingelheim International GmbH, priority 2008, dated 2014)
